Measured values taken from publication PMC9238401, “Peptide Conjugates Derived from flg15, Pep13, and PIP1 That Are Active against Plant-Pathogenic Bacteria and Trigger Plant Defense Responses” (Applied and Environmental Microbiology, 2022).
Non-standard residues stand in square brackets, D forms with d. Residues, ends and D or L forms follow the SMILES beside them. No end group written: not given here.

Legend:
tobacco leaves = experiment: Effect of peptide infiltration on tobacco leaves (phytotoxicity); type: in vivo
Summary of the method: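 Phytotoxicity was scored as necrotic lesion diameter 48 h post-infiltration. Each peptide was infiltrated at 50, 150 or 250 μM into fully expanded tobacco leaf mesophyll, on ≥3 leaves from different plants, alongside water and same-molar melittin controls.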

[1] = system: Xanthomonas axonopodis pv. vesicatoria 2133-2; details: TSB, 25°C, 48 h, OD 600 nm (Bioscreen C), three replicates, experiment repeated twice; MIC given as range
Summary of the method: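 Bacteria grown 24 h (48 h for Xanthomonas axonopodis, X. fragariae) at 25°C, suspended at 10^8 CFU mL^−1, mixed with peptide dilutions in TSB.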

[2] = system: plant-pathogenic bacteria (E. amylovora, X. arboricola pv. pruni, X. fragariae, X. axonopodis pv. vesicatoria, P. syringae pv. actinidiae, P. syringae pv. …); details: 24 h
horse erythrocytes = details: TRIS buffer pH 7.2, 1 h, 37°C, absorbance 540 nm, relative to melittin 100 μM, ± confidence interval (α = 0.05)
Summary of the method: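 Hemolysis measured as absorbance at 540 nm of supernatant, expressed as percent of melittin-lysed control after buffer subtraction. Compound solutions (750, 500, 300, 100 μM, Tris-buffered saline pH 7.2) were combined 1:1 with washed horse red cells for 1 h, 37°C, shaking.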

[3] = HPLC retention time as indicator of relative hydrophobicity; type: physicochemical; details: chromatographic, Kromasil 100 C18 (4.6 mm × 40 mm, 3 μm), linear gradient 2 to 100% B over 12 min, 1 mL/min; A 0.1% aqueous TFA, B 0.1% TFA in CH3CN; used as indicator of relative hydrophobicity
Description: The parameters related to the structure of the peptide conjugates (sequence, charge, hydrophobic ratio [HR], and HPLC retention time), as well as their physicochemical properties (grand average hydropathicity [GRAVY] and hydrophobic moment [<μH>]) obtained from the online programs ProtParam (Expasy server) and HeliQuest are included in Table 1.
Peptides were analyzed under standard analytical HPLC conditions. Method A: peptides were analyzed with a Dionex liquid chromatography instrument composed of a UV/Vis Dionex UVD170U detector, a P680 Dionex pump, an ASI-100 Dionex automatic injector, and Chromeleon 6.60 software. Detection was performed at a wavelength of 220 nm. Solvent A was 0.1% aqueous trifluoroacetic acid (TFA), and solvent B was 0.1% TFA in CH3CN. Analyses were carried out with a Kromasil 100 C18 (4.6 mm × 40 mm, 3 μm) column with a linear gradient of 2 to 100% B over 7 min at a flow rate of 1 mL/min. Method B: peptides were analyzed with a 1260 Infinity II liquid chromatography instrument (Agilent Technologies) composed of a diode array detector HS, a quaternary pump VL, a 1260 vial sampler, and OpenLab CDS ChemStation software. Analyses were carried out with a Kromasil 100 C18 (4.6 mm × 40 mm, 3 μm) column with a linear gradient of 2 to 100% B over 12 min at a flow rate of 1 mL/min.

[4] = system: Pseudomonas syringae pv. syringae EPS94; experiment: In vitro growth inhibition (MIC); type: cell-based; details: TSB, 25°C, 48 h, OD 600 nm (Bioscreen C), three replicates, experiment repeated twice; MIC given as range
Summary of the method: (§1)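 Strains were grown 24 h at 25°C on agar, then suspended in sterile water at 10^8 CFU mL^−1 and mixed with peptide dilutions in Trypticase soy broth. Plates were incubated at 25°C with shaking and OD600 read hourly for 48 h. MIC is the lowest concentration with no growth at 48 h.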

[5] = system: Pseudomonas syringae pv. actinidiae Psa3700.1.1; experiment: In vitro growth inhibition (MIC); type: cell-based; details: TSB, 25°C, 48 h, OD 600 nm (Bioscreen C), three replicates, experiment repeated twice; MIC given as range
Summary of the method: as §1

[6] = system: Xanthomonas arboricola pv. pruni CFBP5563; experiment: In vitro growth inhibition (MIC); type: cell-based; details: TSB, 25°C, 48 h, OD 600 nm (Bioscreen C), three replicates, experiment repeated twice; MIC given as range
Summary of the method: as §1

[7] = system: Erwinia amylovora PMV6076; experiment: In vitro growth inhibition (MIC); type: cell-based; details: TSB, 25°C, 48 h, OD 600 nm (Bioscreen C), three replicates, experiment repeated twice; MIC = lowest concentration with no growth, given as range
Summary of the method: as §1

[8] = system: Xanthomonas fragariae Xf349-9A; experiment: In vitro growth inhibition (MIC); type: cell-based; details: TSB, 25°C, 48 h, OD 600 nm (Bioscreen C), three replicates, experiment repeated twice; MIC given as range
Summary of the method: as §1

[9] = 100 μL infiltrated into mesophyll, lesion diameter 48 h after infiltration, at least three leaves, ± confidence interval (α = 0.05)

Molecule | Size of the lesions in infiltrated tobacco leaves at 50 μM (tobacco leaves; in vivo) | Size of the lesions in infiltrated tobacco leaves at 150 μM (tobacco leaves; in vivo) | Size of the lesions in infiltrated tobacco leaves at 250 μM (tobacco leaves; in vivo) | MIC, Xav [1] | MIC against all the bacteria tested (span over the six pathogens) [2] | Percent hemolysis at 50 μM (horse erythrocytes) | Percent hemolysis at 150 μM (horse erythrocytes) | Percent hemolysis at 250 μM (horse erythrocytes) | Percent hemolysis at 375 μM (horse erythrocytes) | tR (min), HPLC retention time (method B) [3] | MIC, Pss [4] | MIC, Psa [5] | MIC, Xap [6] | MIC, Ea [7] | MIC, Xf [8] | Size of the lesions in infiltrated tobacco leaves at 50 μM (tobacco leaves; [9]) | Size of the lesions in infiltrated tobacco leaves at 150 μM (tobacco leaves; [9]) | Size of the lesions in infiltrated tobacco leaves at 250 μM (tobacco leaves; [9])
CC[C@H](C)[C@H](NC(=O)[C@H](CCCCN)NC(=O)[C@H](CCCCN)NC(=O)[C@@H](Cc1ccccc1)NC(=O)[C@H](CC(C)C)NC(=O)[C@H](CCCCN)NC(=O)[C@H](CCCCN)NC(=O)[C@H](CCC(=O)O)NC(=O)[C@H](Cc1ccc(O)cc1)NC(=O)[C@@H](NC(=O)[C@H](CCCCN)NC(=O)[C@H](Cc1ccccc1)NC(=O)CNC(=O)[C@H](CCCNC(=N)N)NC(=O)[C@@H](NC(=O)[C@@H]1CCCN1C(=O)[C@H](CCC(N)=O)NC(=O)[C@H](CC(N)=O)NC(=O)[C@H](Cc1c[nH]c2ccccc12)NC(=O)[C@@H](N)C(C)C)C(C)C)C(C)C)C(=O)N[C@@H](CC(C)C)C(=O)N[C@@H](CCCCN)C(=O)N[C@@H](Cc1ccc(O)cc1)C(=O)N[C@@H](CC(C)C)C(N)=O [Pep13-BP143] (H-VWNQPVRGFKVYEKKL[dF]KKILKYL-NH2) | 0.16 ± 0.15 cm | 0.52 ± 0.14 cm | 0.62 ± 0.13 cm | 0.8 to 1.6 µM | 0.8 to 12.5 µM | 5 ± 0.5% | 8 ± 0.3% | 10 ± 0.6% | 17 ± 0.4% | 5.97 min | 6.2 to 12.5 µM | 3.1 to 6.2 µM | 0.8 to 1.6 µM | 6.2 to 12.5 µM | 3.1 to 6.2 µM | – | – | –
VWNQPVRGFKVYEKKLFKKILKYL-NH2 [Pep13-BP100] | 0.26 ± 0.08 cm | 0.56 ± 0.13 cm | 0.70 ± 0.15 cm | 0.8 to 1.6 µM | 0.8 to 12.5 µM | 9 ± 1.0% | 25 ± 2.4% | 45 ± 9.0% | 49 ± 9.2% | 6.14 min | 6.2 to 12.5 µM | 3.1 to 6.2 µM | 0.8 to 1.6 µM | 6.2 to 12.5 µM | 6.2 to 12.5 µM | – | – | –
H-KKVVFWVKFKYGIHTH-NH2 [KSLW-PIP1] | 0.17 ± 0.17 cm | 0.53 ± 0.07 cm | 0.97 ± 0.28 cm | 3.1 to 6.2 µM | – | 8 ± 1.3% | 3 ± 2.1% | 3 ± 1.2% | 5 ± 4.9% | 4.83 min | > 50 µM | > 50 µM | 3.1 to 6.2 µM | > 50 µM | 3.1 to 6.2 µM | – | – | –
KKLFKKILKKL-RINSAKDDAAGLQIA-OH [BP16-flg15, peptide conjugate, BP16 at N-terminus, flg15 at C-terminus] | – | – | – | 3.1 to 6.2 µM | – | 0 ± 0.3% | 1 ± 0.1% | 0 ± 0.6% | 1 ± 0.5% | 4.59 min | 12.5 to 25 µM | 12.5 to 25 µM | 25 to 50 µM | > 50 µM | 12.5 to 25 µM | 0 ± 0 cm | 0.31 ± 0.10 cm | 0.30 ± 0.09 cm
